Experimental data taken from patent publication US11214803B2, “Modulators of YAP1 expression” (Ionis Pharmaceuticals, Inc., priority 2019, dated 2022).
Strand notation (5' to 3'): a small letter for the sugar, then the base; units joined by * are phosphorothioate-linked, units joined directly phosphodiester-linked; [ ] holds rarer units or linkages, { } end groups; capitals alone tell only the bases. k = constrained ethyl (cEt); [5mC] = 5-methylcytosine; d = 2'-deoxy (DNA)

Key:
Assay type in all cases: cell-based, human
SCC-15 cells = assay: Cell proliferation assay in SCC-15 cells, CellTiter-Glo (Example 41); details: free uptake, approximately 144 hours
Protocol: (§1) Modified oligonucleotides described in the studies above were tested at various doses in tongue squamous cell carcinoma cell line SCC-15. A control oligonucleotide 792169, described herein above, was also tested.
Cultured SCC-15 cells at a density of 1000 cells/well were treated using free uptake with modified oligonucleotides diluted to concentrations described in the tables below. After approximately 144 hours, cell proliferation was measured using the luminescent cell viability CellTiter-Glo® 2.0 Assay (Promega). Results are presented in the tables below as percent control of the amount of luminescence in samples treated with modified oligonucleotides relative to untreated control cells (% UTC).

Yap1 mRNA [1] = assay: Yap1 mRNA in SNU-1076 cells, RNA analysis (Example 45); details: free uptake, approximately 48 hours
Protocol: Modified oligonucleotides described in the studies above were tested at various doses in upper aerodigestive tract/laryngeal squamous cell carcinoma line SNU-1076. A control oligonucleotide 792169, described herein above, was also tested.
Cultured SNU-1076 cells at a density of 5000 cells per well were treated using free uptake with modified oligonucleotides diluted to concentrations described in the tables below. After approximately 48 hours, Yap1 mRNA levels were measured as previously described using the Human Yap1 primer-probe set RTS4814. Yap1 mRNA levels were normalized to actin-beta content, as measured by primer probe set RTS5002. Results are presented in the tables below as percent control of the amount of Yap1 mRNA relative to untreated control cells (% UTC).

BICR-22 cells = assay: Cell proliferation assay in BICR-22 cells, CellTiter-Glo (Example 35); details: free uptake, approximately 144 hours
Protocol: Modified oligonucleotides described in the studies above were tested at various doses in tongue squamous carcinoma (lymph node metastasis) cell line BICR-22. A control oligonucleotide 792169, described herein above, was also tested.
Cultured BICR-22 cells at a density of 1000 cells/well were treated using free uptake with modified oligonucleotides diluted to concentrations described in the tables below. After approximately 144 hours, cell proliferation was measured using the luminescent cell viability CellTiter-Glo® 2.0 Assay (Promega). Results are presented in the tables below as percent control of the amount of luminescence in samples treated with modified oligonucleotides relative to untreated control cells (% UTC).

Yap1 mRNA [2] = assay: Yap1 mRNA in SCC-15 cells, RNA analysis (Example 41); details: free uptake, approximately 48 hours
Protocol: as §1
Cultured SCC-15 cells at a density of 5000 cells per well were treated using free uptake with modified oligonucleotides diluted to concentrations described in the tables below. After approximately 48 hours, Yap1 mRNA levels were measured as previously described using the Human Yap1 primer-probe set RTS4814. Yap1 mRNA levels were normalized to actin-beta content, as measured by primer probe set RTS5002. Results are presented in the tables below as percent control of the amount of Yap1 mRNA relative to untreated control cells (% UTC).

SCC-25 cells = assay: Cell proliferation assay in SCC-25 cells, CellTiter-Glo (Example 42); details: free uptake, approximately 144 hours
Protocol: Modified oligonucleotides described in the studies above were tested at various doses in tongue squamous cell carcinoma cell line SCC-25. A control oligonucleotide 792169, described herein above, was also tested.
Cultured SCC-25 cells at a density of 1000 cells/well were treated using free uptake with modified oligonucleotides diluted to concentrations described in the tables below. After approximately 144 hours, cell proliferation was measured using the luminescent cell viability CellTiter-Glo® 2.0 Assay (Promega). Results are presented in the tables below as percent control of the amount of luminescence in samples treated with modified oligonucleotides relative to untreated control cells (% UTC).

Yap1 mRNA [3] = assay: Yap1 mRNA in NCI H292 cells, RNA analysis (Example 32); details: free uptake, approximately 48 hours
Protocol: Modified oligonucleotides described in the studies above were tested at various doses in mucoepidermoid pulmonary carcinoma cell line […]. A control oligonucleotide 792169 was also tested.
Cultured NCI H292 cells at a density of 5000 cells per well were treated using free uptake with modified oligonucleotides diluted to concentrations described in the tables below. After approximately 48 hours, Yap1 mRNA levels were measured as previously described using the Human Yap1 primer-probe set RTS4814. Yap1 mRNA levels were normalized to actin-beta content, as measured by primer probe set RTS5002. Results are presented in the tables below as percent control of the amount of Yap1 mRNA relative to untreated control cells (% UTC).

SNU-1214 cells = assay: Cell proliferation assay in SNU-1214 cells, CellTiter-Glo (Example 46); details: free uptake, approximately 144 hours
Protocol: Modified oligonucleotides described in the studies above were tested at various doses in laryngeal squamous cell carcinoma cell line […]. A control oligonucleotide 792169, described herein above, was also tested.
Cultured SNU-1214 cells at a density of 1000 cells/well were treated using free uptake with modified oligonucleotides diluted to concentrations described in the tables below. After approximately 144 hours, cell proliferation was measured using the luminescent cell viability CellTiter-Glo® 2.0 Assay (Promega). Results are presented in the tables below as percent control of the amount of luminescence in samples treated with modified oligonucleotides relative to untreated control cells (% UTC).

CAL27 cells = assay: Cell proliferation assay in CAL27 cells, CellTiter-Glo (Example 37); details: free uptake, approximately 144 hours
Protocol: Modified oligonucleotides described in the studies above were tested at various doses in tongue squamous cell carcinoma line CAL27. A control oligonucleotide 792169, described herein above, was also tested.
Cultured CAL27 cells at a density of 1000 cells/well were treated using free uptake with modified oligonucleotides diluted to concentrations described in the tables below. After approximately 144 hours, cell proliferation was measured using the luminescent cell viability CellTiter-Glo® 2.0 Assay (Promega). Results are presented in the tables below as percent control of the amount of luminescence in samples treated with modified oligonucleotides relative to untreated control cells (% UTC).

Substance	Antiproliferative effect (cell proliferation, luminescence) (SCC-15 cells; 0.04 μM)	Antiproliferative effect (cell proliferation, luminescence) (SCC-15 cells; 0.2 μM)	Antiproliferative effect (cell proliferation, luminescence) (SCC-15 cells; 1 μM)	Antiproliferative effect (cell proliferation, luminescence) (SCC-15 cells; 5 μM)	human Yap1 mRNA expression (Yap1 mRNA [1]; 0.04 μM)	human Yap1 mRNA expression (Yap1 mRNA [1]; 0.2 μM)	human Yap1 mRNA expression (Yap1 mRNA [1]; 1 μM)	human Yap1 mRNA expression (Yap1 mRNA [1]; 5 μM)	Antiproliferative effect (cell proliferation, luminescence) (BICR-22 cells; 0.04 μM)	Antiproliferative effect (cell proliferation, luminescence) (BICR-22 cells; 0.2 μM)	Antiproliferative effect (cell proliferation, luminescence) (BICR-22 cells; 1 μM)	Antiproliferative effect (cell proliferation, luminescence) (BICR-22 cells; 5 μM)	human Yap1 mRNA expression (Yap1 mRNA [2]; 0.04 μM)	human Yap1 mRNA expression (Yap1 mRNA [2]; 0.2 μM)	human Yap1 mRNA expression (Yap1 mRNA [2]; 1 μM)	human Yap1 mRNA expression (Yap1 mRNA [2]; 5 μM)	Antiproliferative effect (cell proliferation, luminescence) (SCC-25 cells; 0.08 μM)	Antiproliferative effect (cell proliferation, luminescence) (SCC-25 cells; 0.4 μM)	Antiproliferative effect (cell proliferation, luminescence) (SCC-25 cells; 2 μM)	Antiproliferative effect (cell proliferation, luminescence) (SCC-25 cells; 10 μM)	also measured
715487 (kA*kT*kT*dA*d[5mC]*dT*dT*d[5mC]*dA*dT*dA*dG*d[5mC]*kT*kT*kA) [compound 715487]	87 % UTC	66 % UTC	47 % UTC	28 % UTC	89 % UTC	67 % UTC	31 % UTC	11 % UTC	70 % UTC	56 % UTC	28 % UTC	22 % UTC	69 % UTC	33 % UTC	12 % UTC	5 % UTC	82 % UTC	48 % UTC	25 % UTC	15 % UTC	human Yap1 mRNA expression (Yap1 mRNA [3]; 0.04 μM): 104 % UTC; human Yap1 mRNA expression (Yap1 mRNA [3]; 0.2 μM): 83 % UTC; human Yap1 mRNA expression (Yap1 mRNA [3]; 1 μM): 40 % UTC; human Yap1 mRNA expression (Yap1 mRNA [3]; 5 μM): 12 % UTC; Antiproliferative effect (cell proliferation, luminescence) (SNU-1214 cells; 0.04 μM): 93 % UTC; Antiproliferative effect (cell proliferation, luminescence) (SNU-1214 cells; 0.2 μM): 69 % UTC; Antiproliferative effect (cell proliferation, luminescence) (SNU-1214 cells; 1 μM): 52 % UTC; Antiproliferative effect (cell proliferation, luminescence) (SNU-1214 cells; 5 μM): 38 % UTC; Antiproliferative effect (cell proliferation, luminescence) (CAL27 cells; 0.08 μM): 95 % UTC; Antiproliferative effect (cell proliferation, luminescence) (CAL27 cells; 0.4 μM): 85 % UTC; Antiproliferative effect (cell proliferation, luminescence) (CAL27 cells; 2 μM): 67 % UTC; Antiproliferative effect (cell proliferation, luminescence) (CAL27 cells; 10 μM): 33 % UTC
CGCCGATAAGGTACAC (cEt gapmer, phosphorothioate backbone, further chemistry not given here) [ION 792169, reference compound]	93 % UTC	92 % UTC	89 % UTC	71 % UTC	89 % UTC	98 % UTC	102 % UTC	107 % UTC	97 % UTC	95 % UTC	82 % UTC	65 % UTC	91 % UTC	100 % UTC	102 % UTC	105 % UTC	97 % UTC	101 % UTC	96 % UTC	92 % UTC	human Yap1 mRNA expression (Yap1 mRNA [3]; 0.04 μM): 98 % UTC; human Yap1 mRNA expression (Yap1 mRNA [3]; 0.2 μM): 112 % UTC; human Yap1 mRNA expression (Yap1 mRNA [3]; 1 μM): 111 % UTC; human Yap1 mRNA expression (Yap1 mRNA [3]; 5 μM): 106 % UTC; Antiproliferative effect (cell proliferation, luminescence) (SNU-1214 cells; 0.04 μM): 105 % UTC; Antiproliferative effect (cell proliferation, luminescence) (SNU-1214 cells; 0.2 μM): 90 % UTC; Antiproliferative effect (cell proliferation, luminescence) (SNU-1214 cells; 1 μM): 96 % UTC; Antiproliferative effect (cell proliferation, luminescence) (SNU-1214 cells; 5 μM): 72 % UTC; Antiproliferative effect (cell proliferation, luminescence) (CAL27 cells; 0.08 μM): 96 % UTC; Antiproliferative effect (cell proliferation, luminescence) (CAL27 cells; 0.4 μM): 102 % UTC; Antiproliferative effect (cell proliferation, luminescence) (CAL27 cells; 2 μM): 103 % UTC; Antiproliferative effect (cell proliferation, luminescence) (CAL27 cells; 10 μM): 90 % UTC
